Measurements published in paper PMC8958428 (Yeast (Chichester, England), 2021).

Target: Hem1p (Hem1-His6) (Saccharomyces cerevisiae, UniProt P09950)
Assay: ALA synthase activity, control reactions
Format: biochemical
Conditions: concentration not told

Chain of Hem1p (Hem1-His6) (P09950 10-548): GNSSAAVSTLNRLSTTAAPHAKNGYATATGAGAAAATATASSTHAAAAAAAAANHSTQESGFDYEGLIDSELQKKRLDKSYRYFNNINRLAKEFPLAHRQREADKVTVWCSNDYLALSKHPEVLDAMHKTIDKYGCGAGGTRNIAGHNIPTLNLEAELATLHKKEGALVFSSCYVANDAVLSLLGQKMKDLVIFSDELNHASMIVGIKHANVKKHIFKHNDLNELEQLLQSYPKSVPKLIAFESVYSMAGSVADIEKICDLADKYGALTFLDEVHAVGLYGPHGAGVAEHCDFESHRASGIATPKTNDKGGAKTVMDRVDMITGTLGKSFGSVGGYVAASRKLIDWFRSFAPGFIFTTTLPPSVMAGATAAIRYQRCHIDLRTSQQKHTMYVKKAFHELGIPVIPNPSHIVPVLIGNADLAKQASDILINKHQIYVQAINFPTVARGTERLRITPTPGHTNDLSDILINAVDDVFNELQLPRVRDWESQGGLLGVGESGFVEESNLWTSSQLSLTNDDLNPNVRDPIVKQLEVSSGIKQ

| Structure (SMILES) | ALA synthase activity, control reactions |
| --- | --- |
| N[C@@H](CS)C(=O)O [L-cysteine] | Control reactions showed that Hem1p was inhibited by both L-serine and L-cysteine |
| N[C@@H](CO)C(=O)O [L-serine] | Control reactions showed that Hem1p was inhibited by both L-serine and L-cysteine |
